Structures are written as SMILES. Read-outs that look alike come from different tables or passages of the source.

The test system of experiment [1] is thrombus formation in the carotid artery (70% FeCl3 patch). Kind of experiment: Anti-thrombotic activity, FeCl3-induced carotid artery thrombosis. The experiment is classed as in vivo, Male Wistar rats. The settings on record: 90 μmol/kg p.o., % animals protected; for responders at 90 µmol/kg: Rattus norvegicus, po, read-out: Antithrombotic activity (% protection); for Antithrombotic activity (% protection): rat. The procedure: Anti-Thrombotic Activity Assessment Experimental Procedure Male Wistar rats weighing 250-300 g were used after an acclimatization period of five days, and animals were divided in groups of 8 animals each for the treatments. […] The vehicle used to dissolve the products consisted of 1% Cremophor EL 27963, 1% Tween 80 and 0.5% Methocel E-15 in distilled water. After a fasting period of 8 hours with free access to drinking water each product was given by gavage 1 hour before induction of thrombosis. Thrombus formation was induced using a patch embedded with 70% FeCl3 solution applied onto the carotid artery using the same procedure described by Feuerstein G Z et al and later modified by Kurz et al (Feuerstein G Z, et al Artherioscler. Thromb. Vasc. Biol. 1999, 19: 2554-2562, Kurz K D, et al Thromb. Res. 1990, 60:269-280). Anti-thrombotic efficacy was evaluated at different times after dosage. Rats were anesthetized with sodium pentobarbital and then placed on a dorsal position over a thermal blanket laid on a surgical board and heated at 37° C. The left carotid artery was dissected and an electromagnetic blood flow probe was placed on the artery to measure blood flow. After application of the thrombotic stimuli, blood flow was monitored for the following 30 minutes. The vessel was considered occluded by the thrombus when flow reached 0.0 ml/min. Data were analysed by contingency tables using the Graph Pad Prism Program. P values were calculated using Fisher's exact test, values of p<0.05 were considered statistically significant. Results were expressed as % animals protected.

Experiment [2] has as its system coronary angina caused by coronary obstruction (35% ferric chloride patch on left anterior descending coronary artery). Kind of experiment: Anti-anginal activity, ferric chloride-induced coronary angina (ECG S-wave). The experiment is classed as in vivo, Male Wistar rats. The settings on record: Rattus norvegicus, po, rat, vs untreated control, read-out: Antianginal activity (% inhibition of S-wave decrease); for inhibition in vivo at 90 µmol/kg: 90 μmol/kg p.o. The procedure:
Anti-Anginal Activity Assessment
Male Wistar rats weighing 250-300 g were used after an acclimatization period of five days, and animals were divided in groups of 8 for each treatment. In all experiments, rats were treated with 90 μmol/kg of each product by oral gavage using an administration volume of 10 ml/kg unless otherwise stated. The vehicle used to dissolve the products consisted of 1% Cremophor EL 27963, 1% Tween 80 and 0.5% Methocel E-15 in distilled water. […]
The procedure used to test the anti-anginal activity was that described by Hirata Y et al (Hirata Y, et al. Journal of Cardiovascular Pharmacology 1998, 31: 322-326).
After treatment, animals were anaesthetized with pentobarbital and electrodes were set for standard limb lead II electrocardiogram recording (Grass polygraph model 7, amplifier 7DA and pre-amplifier 7P1).
To induce coronary angina caused by coronary obstruction, a 35%-ferric chloride embedded mini patch was applied onto the left anterior descending coronary artery just below the left auricle. In all groups, after application of the patch, the ECG was recorded during 10 minutes. The shortening of the S-wave amplitude was measured on the recorded ECG. Data were collected with a Biopac system model MP100 connected to a Pentium PC. Results were expressed as % inhibition of S-wave decrease vs the untreated control.

As to `CCCCS[C@H]1CO[C@H]2[C@@H]1OC[C@H]2O[N+](=O)[O-]` [Comp 10, (3R,3aS,6S,6aS)-6-(butylthio)hexahydrofuro[3,2-b]furan-3-yl nitrate, reference compound], the responders at 90 µmol/kg in experiment [1] (1 h, 1 h after dosage) was 40%.

For `C=CCS[C@H]1CO[C@H]2[C@@H]1OC[C@H]2O[N+](=O)[O-]` [Ej. 3, (3R,3aS,6S,6aS)-6-(allylthio)hexahydrofuro[3,2-b]furan-3-yl nitrate], the responders at 90 µmol/kg in experiment [1] (1 h, 1 h after dosage) turned out to be 67%.

`CCCS(=O)(=O)[C@H]1CO[C@H]2[C@@H]1OC[C@H]2O[N+](=O)[O-]` [Ej. 8, (3R,3aS,6S,6aS)-6-(propylsulfonyl)hexahydrofuro[3,2-b]furan-3-yl nitrate]: the responders at 90 µmol/kg in experiment [1] (1 h, 1 h after dosage) was found to be 100%; in experiment [1] (2 h, 2 h after dosage) it was 50%; in experiment [1] (4 h, 4 h after dosage), 0%. The inhibition in vivo at 90 µmol/kg in experiment [2] (1 h, 1 h) came out at 77%; in experiment [2] (4 h, 4 h), 25%.

On to `CCCC[S+]([O-])[C@H]1CO[C@H]2[C@@H]1OC[C@H]2O[N+](=O)[O-]` (stereo partly drawn) [Comp 11, (3R,3aS,6S,6aS)-6-((R,S)-butylsulfinyl)hexahydrofuro[3,2-b]furan-3-yl nitrate, reference compound], for which the responders at 90 µmol/kg in experiment [1] (1 h, 1 h after dosage) is 32%.

As to `CCOC(=O)C[S+]([O-])[C@H]1CO[C@H]2[C@@H]1OC[C@H]2O[N+](=O)[O-]` (stereo partly shown) [Comp 5, reference compound], the responders at 90 µmol/kg amounted to 16% in experiment [1] (1 h, 1 h after dosage); 0% in experiment [1] (2 h, 2 h after dosage); 0% in experiment [1] (4 h, 4 h after dosage).

In the case of `O=[N+]([O-])O[C@@H]1CO[C@H]2[C@@H]1OC[C@@H]2[S+]([O-])Cc1ccccc1` (stereo partly drawn) [Comp 4, (3R,3aS,6S,6aS)-6-((R,S)-benzylsulfinyl)hexahydrofuro[3,2-b]furan-3-yl nitrate, reference compound], the responders at 90 µmol/kg in experiment [1] (1 h, 1 h after dosage) was determined as 20%; in experiment [1] (2 h, 2 h after dosage), 0%; in experiment [1] (4 h, 4 h after dosage) it was 0%.

Consider `CC[S+]([O-])[C@H]1CO[C@H]2[C@@H]1OC[C@H]2O[N+](=O)[O-]` (stereo partly drawn) [Ej. 4, (3R,3aS,6S,6aS)-6-((R,S)-ethylsulfinyl)hexahydrofuro[3,2-b]-furan-3-yl nitrate], for which the responders at 90 µmol/kg in experiment [1] (0.5 h, ½ h after dosage) came to 32%; in experiment [1] (1 h, 1 h after dosage), 67%; in experiment [1] (2 h, 2 h after dosage), 83%; in experiment [1] (4 h, 4 h after dosage), 50%. In addition, the inhibition in vivo at 90 µmol/kg in experiment [2] (1 h, 1 h) is 84%; in experiment [2] (4 h, 4 h) it was 43%.

As to `CC[S+]([O-])[C@@H]1CO[C@H]2[C@@H]1OC[C@H]2O[N+](=O)[O-]` (single isomer, unassigned) [Ej. 13 isom 2], the “Antithrombotic activity (% protection)” value stood at 83% in experiment [1] (1 h after dosage) and 16% in experiment [1] (4 h after dosage).

For the compound `CC(=O)S[C@@H]1CO[C@H]2[C@@H]1OC[C@H]2O[N+](=O)[O-]` [Ej. 10, S-(3R,3aS,6R,6aS)-6-(nitrooxy)hexahydrofuro[3,2-b]furan-3-yl ethanethioate], the responders at 90 µmol/kg in experiment [1] (0.5 h, ½ h after dosage) stood at 67%; in experiment [1] (1 h, 1 h after dosage), 75%; in experiment [1] (2 h, 2 h after dosage), 83%; in experiment [1] (4 h, 4 h after dosage), 40%. The inhibition in vivo at 90 µmol/kg in experiment [2] (1 h, 1 h) is 69%; in experiment [2] (4 h, 4 h), 57%.

For the compound `C[S@+]([O-])[C@H]1CO[C@H]2[C@@H]1OC[C@H]2O[N+](=O)[O-]` [Comp 7, (3R,3aS,6S,6aS)-6-((S)-methylsulfinyl)hexahydrofuro[3,2-b]furan-3-yl nitrate, reference compound], the responders at 90 µmol/kg in experiment [1] (0.5 h, ½ h after dosage) was found to be 0%; in experiment [1] (1 h, 1 h after dosage), 0%; in experiment [1] (2 h, 2 h after dosage) it was 0%; in experiment [1] (4 h, 4 h after dosage), 0%. The inhibition in vivo at 450 µmol/kg in experiment [2] (1 h, 450 μmol/kg p.o., 1 h) is 73%.

With `CCS[C@@H]1CO[C@H]2[C@@H]1OC[C@H]2O[N+](=O)[O-]` [Ej. 11, (3R,3aS,6R,6aS)-6-(ethylthio)hexahydrofuro[3,2-b]furan-3-yl nitrate], the responders at 90 µmol/kg in experiment [1] (1 h, 1 h after dosage) was determined as 66%; in experiment [1] (4 h, 4 h after dosage), 0%. The inhibition in vivo at 90 µmol/kg in experiment [2] (1 h, 1 h) amounted to 41%.

`CCCS(=O)(=O)[C@@H]1CO[C@H]2[C@@H]1OC[C@H]2O[N+](=O)[O-]` [Ej. 16, (3R,3aS,6R,6aS)-6-(propylsulfonyl)hexahydrofuro[3,2-b]furan-3-yl nitrate]: the responders at 90 µmol/kg in experiment [1] (1 h, 1 h after dosage) worked out at 40%; in experiment [1] (4 h, 4 h after dosage), 20%. For the same compound, the inhibition in vivo at 90 µmol/kg amounted to 32% in experiment [2] (1 h, 1 h) and 30% in experiment [2] (4 h, 4 h).

Regarding `O=[N+]([O-])O[C@@H]1CO[C@H]2[C@@H]1OC[C@@H]2S(=O)(=O)Cc1ccccc1` [Comp 8, (3R,3aS,6S,6aS)-6-(benzylsulfonyl)hexahydrofuro[3,2-b]furan-3-yl nitrate, reference compound], the responders at 90 µmol/kg in experiment [1] (1 h, 1 h after dosage) turned out to be 33%.

As to `CCCCS(=O)(=O)[C@H]1CO[C@H]2[C@@H]1OC[C@H]2O[N+](=O)[O-]` [Comp 12, (3R,3aS,6S,6aS)-6-(butylsulfonyl)hexahydrofuro[3,2-b]furan-3-yl nitrate, reference compound], in experiment [1] (1 h, 1 h after dosage), the responders at 90 µmol/kg is 40%.

In the case of `CC[S+]([O-])[C@@H]1CO[C@H]2[C@@H]1OC[C@H]2O[N+](=O)[O-]` (single isomer, unassigned) [Ej. 13 isom 1], in experiment [1] (4 h, 4 h after dosage), the responders at 90 µmol/kg was 16%. The “Antithrombotic activity (% protection)” value in experiment [1] (1 h after dosage) was 32%.

For `C=CCS(=O)(=O)[C@H]1CO[C@H]2[C@@H]1OC[C@H]2O[N+](=O)[O-]` [Ej. 9, (3R,3aS,6S,6aS)-6-(allylsulfonyl)hexahydrofuro[3,2-b]furan-3-yl nitrate], the responders at 90 µmol/kg in experiment [1] (1 h, 1 h after dosage) was found to be 83%; in experiment [1] (2 h, 2 h after dosage) it was 50%; in experiment [1] (4 h, 4 h after dosage), 0%.

Regarding `CCOC(=O)CS[C@H]1CO[C@H]2[C@@H]1OC[C@H]2O[N+](=O)[O-]` [Comp 3, Ethyl 2-((3S,3aS,6R,6aS)-6-(nitrooxy)hexahydrofuro[3,2-b]furan-3-ylthio)acetate, reference compound], the responders at 90 µmol/kg in experiment [1] (1 h, 1 h after dosage) is 32%.

With `O=[N+]([O-])O[C@@H]1CO[C@H]2[C@@H]1OC[C@@H]2SCc1ccccc1` [Comp 2, (3R,3aS,6S,6aS)-6-(benzylthio)hexahydrofuro[3,2-b]furan-3-yl nitrate, reference compound], in experiment [1] (1 h, 1 h after dosage), the responders at 90 µmol/kg was 33%.

With `C=CC[S+]([O-])[C@H]1CO[C@H]2[C@@H]1OC[C@H]2O[N+](=O)[O-]` (stereo partly drawn) [Ej. 6, (3R,3aS,6S,6aS)-6-((R,S)-allylsulfinyl)hexahydrofuro[3,2-b]furan-3-yl nitrate], the responders at 90 µmol/kg came out at 67% in experiment [1] (1 h, 1 h after dosage); 34% in experiment [1] (2 h, 2 h after dosage); 17% in experiment [1] (4 h, 4 h after dosage).
